Measured values from patent publication US5041567A, “Antibacterial monic acid derivatives” (Beecham Group plc, priority 1982, dated 1991).
≈ marks a conversion by molar mass, not a printed value. Read-outs that look alike come from different tables or passages of the source.

Columns and labels:
M. bovis NCTC 10131 = assay: microbe, parasite or virus in culture; type: cell-based; conditions: NCTC10131, 144 h
Strep. uberis SPU1 = assay: MIC against veterinary bacteria in vitro; conditions: Streptococcus uberis, SPU1, 18 h
Procedure: (§1) The activity of the compounds of the Examples against various veterinarily important bacteria, was assayed in vitro using two-fold serial dilutions in Diagnostic Sensitivity Test Agar inoculated with 10^4 organisms.

[1] = test system: M. suipneumoniae J2206/183^b; assay: MIC against mycoplasma in vitro; type: cell-based; conditions: Mesomycoplasma hyopneumoniae, 144 h; M. suipneumoniae J2206/183^b; 6 days, 37° C.; read-out: MIC
M. dispar NCTC 10125 = assay: MIC against mycoplasma in vitro; type: cell-based; conditions: 144 h
Bacillus subtilis 6633 = assay: MIC against human bacteria in vitro; type: cell-based; conditions: Bacillus subtilis 6633; 5% chocolated horse blood agar, 18 hours; read-out: MIC
M. suipneumoniae Str. 11 = assay: MIC against mycoplasma in vitro; type: cell-based; conditions: Mesomycoplasma hyopneumoniae, 144 h; M. suipneumoniae Str. 11; 6 days, 37° C.; read-out: MIC
Staph. aureus Oxford = assay: MIC against human bacteria in vitro; type: cell-based; conditions: Staphylococcus aureus; Staph. aureus Oxford; 5% chocolated horse blood agar, 18 hours; read-out: MIC
Past. multocida PA1 = assay: MIC against veterinary bacteria in vitro; conditions: Pasteurella multocida, PA1, 18 h
Procedure: as §1

[2] = test system: Corynebacterium xerosis 9755; assay: MIC against human bacteria in vitro; type: cell-based; conditions: Corynebacterium xerosis 9755; 5% chocolated horse blood agar, 18 hours; read-out: MIC
M. suipneumoniae LABER = assay: MIC against mycoplasma in vitro; type: cell-based; conditions: Mesomycoplasma hyopneumoniae, 144 h; M. suipneumoniae LABER; 6 days, 37° C.; read-out: MIC
P. mirabilis 889 = assay: MIC against human bacteria in vitro; type: cell-based
[3] = test system: Staph. aureus B4 (pen. resistant); assay: MIC against veterinary bacteria in vitro; conditions: Staphylococcus aureus, 18 h
Procedure: as §1

E. coli NCTC 10418 = assay: MIC against human bacteria in vitro; type: cell-based; conditions: Escherichia coli
[4] = test system: Haemophilus influenzae Q1; assay: MIC against human bacteria in vitro; type: cell-based; conditions: Haemophilus influenzae Q1; 5% chocolated horse blood agar, 18 hours; read-out: MIC
Strep. faecalis I = assay: MIC against human bacteria in vitro; type: cell-based; conditions: Enterococcus faecalis; Strep. faecalis I; 5% chocolated horse blood agar, 18 hours; read-out: MIC
[5] = test system: M. suipneumoniae PW/C/210; assay: MIC against mycoplasma in vitro; type: cell-based; conditions: Mesomycoplasma hyopneumoniae, 144 h
[6] = test system: Corynebacterium pyogenes CY1; assay: MIC against veterinary bacteria in vitro; conditions: CY1, 18 h
Procedure: as §1

[7] = test system: Neisseria catarrhalis 1502; assay: MIC against human bacteria in vitro; type: cell-based; conditions: Neisseria catarrhalis 1502; 5% chocolated horse blood agar, 18 hours; read-out: MIC
[8] = test system: Strep. pyogenes R80/421-A; assay: MIC against human bacteria in vitro; type: cell-based; conditions: Streptococcus pyogenes; Strep. pyogenes R80/421-A; 5% chocolated horse blood agar, 18 hours; read-out: MIC
[9] = test system: M. hyosynoviae ATCC 25591; assay: MIC against mycoplasma in vitro; type: cell-based; conditions: 144 h; M. hyosynoviae ATCC 25591; 6 days, 37° C.; read-out: MIC
M. hyorhinis ATCC 25021 = assay: MIC against mycoplasma in vitro; type: cell-based; conditions: Mesomycoplasma hyorhinis, ATCC25021, 144 h
K. aerogenes A = assay: MIC against human bacteria in vitro; type: cell-based; conditions: Klebsiella aerogenes; K. aerogenes A; 5% chocolated horse blood agar, 18 hours; read-out: MIC
Past. haemolytica PA5 = assay: MIC against veterinary bacteria in vitro; conditions: Mannheimia haemolytica, PA5, 18 h
Procedure: as §1

Strep. dysgalactiae SPD1 = assay: MIC against veterinary bacteria in vitro; conditions: Streptococcus dysgalactiae, SPD1, 18 h
Procedure: as §1

[10] = Proteus mirabilis, P. mirabilis 889, 5% chocolated horse blood agar, 18 hours, read-out: MIC
[11] = NCTC10418, E. coli NCTC 10418, agar with 5% chocolated horse blood, 18 hours, 37° C., read-out: MIC
[12] = M. dispar NCTC 10125, 6 days, 37° C., read-out: MIC
[13] = M. suipneumoniae PW/C/210, 6 days, 37° C., read-out: MIC
[14] = M. hyorhinis ATCC 25021, 6 days, 37° C., read-out: MIC

## C/C(=C\c1ncc(-c2ccc(C=O)cc2)o1)C[C@@H]1OC[C@H](C[C@@H]2O[C@H]2[C@@H](C)[C@H](C)O)[C@@H](O)[C@H]1O [Example 15, 5-p-Formylphenyl-2-(1-normon-2-yl) oxazole A]
M. bovis NCTC 10131
  MIC: 0.05 µg/mL (≈ 0.106 µM)
Strep. uberis SPU1
  MIC: 0.625 µg/mL (≈ 1.33 µM)
[1]
  MIC: 0.5 µg/mL (≈ 1.06 µM)
M. dispar NCTC 10125
  MIC: 0.1 µg/mL (≈ 0.212 µM)
Bacillus subtilis 6633
  MIC: 2 µg/mL (≈ 4.24 µM)
M. suipneumoniae Str. 11
  MIC: 0.5 µg/mL (≈ 1.06 µM)
Staph. aureus Oxford
  MIC: 2 µg/mL (≈ 4.24 µM)
Past. multocida PA1
  MIC: 10 µg/mL (≈ 21.2 µM)
[2]
  MIC: > 128 µg/mL
M. suipneumoniae LABER
  MIC: 0.5 µg/mL (≈ 1.06 µM)
P. mirabilis 889; [10]
  MIC: > 128 µg/mL
[3]
  MIC: 2.5 µg/mL (≈ 5.3 µM)
E. coli NCTC 10418; [11]
  MIC: > 128 µg/mL
[4]
  MIC: 4 µg/mL (≈ 8.48 µM)
Strep. faecalis I
  MIC: > 128 µg/mL
[5]
  MIC: 0.25 µg/mL (≈ 0.53 µM)
[6]
  MIC: > 80 µg/mL
[7]
  MIC: 4 µg/mL (≈ 8.48 µM)
[8]
  MIC: 8 µg/mL (≈ 17 µM)
[9]
  MIC: 0.5 µg/mL (≈ 1.06 µM)
M. hyorhinis ATCC 25021
  MIC: 0.25 µg/mL (≈ 0.53 µM)
K. aerogenes A
  MIC: > 128 µg/mL
Past. haemolytica PA5
  MIC: 80 µg/mL (≈ 170 µM)
Strep. dysgalactiae SPD1
  MIC: 1.25 µg/mL (≈ 2.65 µM)

## C/C(=C\c1ncc(-c2ccc([S+](C)[O-])cc2)o1)C[C@@H]1OC[C@H](C[C@@H]2O[C@H]2[C@@H](C)[C@H](C)O)[C@@H](O)[C@H]1O (stereo partly drawn) [Example 11, 5-p-Methylsulphinylphenyl-2-(1-normon-2-yl) oxazole A]
M. bovis NCTC 10131
  MIC: ≤ 0.01 µg/mL
Strep. uberis SPU1
  MIC: 0.312 µg/mL (≈ 0.617 µM)
[1]
  MIC: 0.25 µg/mL (≈ 0.494 µM)
M. dispar NCTC 10125; [12]
  MIC: 0.1 µg/mL (≈ 0.198 µM)
Bacillus subtilis 6633
  MIC: 4 µg/mL (≈ 7.91 µM)
M. suipneumoniae Str. 11
  MIC: 0.1 µg/mL (≈ 0.198 µM)
Staph. aureus Oxford
  MIC: 16 µg/mL (≈ 31.6 µM)
Past. multocida PA1
  MIC: 5 µg/mL (≈ 9.89 µM)
[2]
  MIC: > 128 µg/mL
M. suipneumoniae LABER
  MIC: 0.1 µg/mL (≈ 0.198 µM)
P. mirabilis 889; [10]
  MIC: > 128 µg/mL
[3]
  MIC: 5 µg/mL (≈ 9.89 µM)
E. coli NCTC 10418; [11]
  MIC: > 128 µg/mL
[4]
  MIC: 2 µg/mL (≈ 3.96 µM)
Strep. faecalis I
  MIC: > 128 µg/mL
[5]; [13]
  MIC: 0.1 µg/mL (≈ 0.198 µM)
[6]
  MIC: > 80 µg/mL
[7]
  MIC: 8 µg/mL (≈ 15.8 µM)
[8]
  MIC: 4 µg/mL (≈ 7.91 µM)
[9]
  MIC: 0.25 µg/mL (≈ 0.494 µM)
M. hyorhinis ATCC 25021; [14]
  MIC: 0.1 µg/mL (≈ 0.198 µM)
K. aerogenes A
  MIC: > 128 µg/mL
Past. haemolytica PA5
  MIC: 40 µg/mL (≈ 79.1 µM)
Strep. dysgalactiae SPD1
  MIC: 1.25 µg/mL (≈ 2.47 µM)

## C/C(=C\c1ncc(CCCCCCCC(=O)O)o1)C[C@@H]1OC[C@H](C[C@@H]2O[C@H]2[C@@H](C)[C@H](C)O)[C@@H](O)[C@H]1O [Example 12, Sodium 8-[2-(1-normon-2-yl)-5-oxazolyl]-octanoate A]
M. bovis NCTC 10131
  MIC: 0.05 µg/mL
Strep. uberis SPU1
  MIC: 0.625 µg/mL
[1]
  MIC: > 10 µg/mL
M. dispar NCTC 10125; [12]
  MIC: 5 µg/mL
Bacillus subtilis 6633
  MIC: 4 µg/mL
M. suipneumoniae Str. 11
  MIC: 10 µg/mL
Staph. aureus Oxford
  MIC: 8 µg/mL
Past. multocida PA1
  MIC: 2.5 µg/mL
[2]
  MIC: > 16 µg/mL
M. suipneumoniae LABER
  MIC: > 10 µg/mL
P. mirabilis 889; [10]
  MIC: > 16 µg/mL
[3]
  MIC: 2.5 µg/mL
E. coli NCTC 10418; [11]
  MIC: > 16 µg/mL
[4]
  MIC: 1 µg/mL
Strep. faecalis I
  MIC: > 16 µg/mL
[5]; [13]
  MIC: 10 µg/mL
[6]
  MIC: > 40 µg/mL
[7]
  MIC: 16 µg/mL
[8]
  MIC: 16 µg/mL
[9]
  MIC: 5 µg/mL
M. hyorhinis ATCC 25021; [14]
  MIC: 5 µg/mL
K. aerogenes A
  MIC: > 16 µg/mL
Past. haemolytica PA5
  MIC: 40 µg/mL
Strep. dysgalactiae SPD1
  MIC: 0.625 µg/mL

## C/C(=C\c1ncc(-c2ccccc2)s1)C[C@@H]1OC[C@H](C[C@@H]2O[C@H]2[C@@H](C)[C@H](C)O)[C@@H](O)[C@H]1O [Example 29, 2-(1-Normon-2-yl)-5-phenylthiazole A]
M. bovis NCTC 10131
  MIC: 0.5 µg/mL (≈ 1.09 µM)
Strep. uberis SPU1
  MIC: 5 µg/mL (≈ 10.9 µM)
[1]
  MIC: > 10 µg/mL
M. dispar NCTC 10125
  MIC: 2.5 µg/mL (≈ 5.44 µM)
Bacillus subtilis 6633
  MIC: 50 µg/mL (≈ 109 µM)
M. suipneumoniae Str. 11
  MIC: 10 µg/mL (≈ 21.8 µM)
Staph. aureus Oxford
  MIC: 25 µg/mL (≈ 54.4 µM)
Past. multocida PA1
  MIC: > 80 µg/mL
[2]
  MIC: > 100 µg/mL
M. suipneumoniae LABER
  MIC: 10 µg/mL (≈ 21.8 µM)
P. mirabilis 889; Proteus mirabilis, 889, 18 h
  MIC: > 100 µg/mL
[3]
  MIC: 10 µg/mL (≈ 21.8 µM)
E. coli NCTC 10418; NCTC10418, 18 h
  MIC: > 100 µg/mL
[4]
  MIC: 50 µg/mL (≈ 109 µM)
Strep. faecalis I
  MIC: > 100 µg/mL
[5]; [13]
  MIC: 10 µg/mL (≈ 21.8 µM)
[6]
  MIC: > 80 µg/mL
[7]
  MIC: 50 µg/mL (≈ 109 µM)
[8]
  MIC: 50 µg/mL (≈ 109 µM)
[9]
  MIC: > 10 µg/mL
M. hyorhinis ATCC 25021; [14]
  MIC: 10 µg/mL (≈ 21.8 µM)
K. aerogenes A
  MIC: > 100 µg/mL
Past. haemolytica PA5
  MIC: > 80 µg/mL
Strep. dysgalactiae SPD1
  MIC: 20 µg/mL (≈ 43.5 µM)
